From patent US6531462B2, “Medicament for treating obesity and improving lipid metabolism” (priority 1997, dated 2003)

Columns and labels:
[1] = Example 1: body weight, body fat and feed intake of mice fed feed supplemented with 0.5% test compound; assay type: in vivo, CDF1 male mice
Procedure: (§1) 5-Sitosten-3-one was prepared according to the method of Parish (Parish, E. J., et al., Synthetic Communication, 22, pp.2839-2847, 1992) by using β-sitosterol (Tokyo Chemical Industry Co., Ltd.) as a starting material and used in the experiments. The content ratio of 24-ethyl and 24-methyl compounds in the synthesized product was 6.5:3.5. As experimental animals, six CDF1 male mice (5-week old, Charles River Japan Inc.) were used in each experimental group. The animals were fed in aluminum cages for mice, and allowed to feed and water ad libitum. The animals were fed for 2 weeks under feeding conditions at a temperature of 24±1° C. and a relative humidity of 55±5%, where light and darkness were controlled to change every 12 hours, and each cage and floor mat (white flakes) were exchanged twice a week.
(§2) Modified AIN (Oriental Yeast Co.) was used as basic feed and mixed with 0.5% 5-sitosten-3-one to prepare test feeds. A feed used as a positive control was prepared by adding 0.5% of 4-cholesten-3-one (Japanese Patent Unexamined Publication No. Hei 5-170651/1993) to the basic feed. Non-treated mice as a control were fed solely with the basic feed. The basic feed was composed of 22.8% crude protein, 54.1% carbohydrates, 6.0% lipids, 4.9% fibers, 2.9% ash, and 8.7% water, and its calorie was 1,523 kJ. The feed was stored at 4° C. after preparation, and a fresh feed was supplied every day.
(§3) The animals were weighed at given intervals of time, and the average values and standard errors of the experimental groups were determined. In addition, feed consumptions were measured at given intervals of time and daily averages per mouse were determined. The animals were observed every day. After the end of the feeding, the animals were anesthetized to death with carbon dioxide gas, and bloods were collected from the vena cava to obtain serums. The animals were autopsied, and the brains, lungs, hearts, livers, spleens, kidneys, testis, adrenals and intraperitoneal fat were examined by the naked eye and weighed. As to serum lipid, neutral fats were measured by using a clinical test kit based on the enzyme method (Triglyceride-E Test, Wako Pure Chemicals Industries Co., Ltd.), and total cholesterol and cholestanol were measured by the method of Kasama (T. Kasama, et al., J. Chromatogr., 400, 241, 1987) with modifications, where the amount of benzoyl chloride was increased by 10 times, the reaction time was doubled, and the measurement was performed by using a high performance liquid chromatography system. Significant differences were determined by t-test for body weights and serum lipids on the basis of the non-treated control mice.

[2] = Example 3: dose response of 5-sitosten-3-one on serum lipids; assay type: in vivo, CDF1 male mice; details: for Free fatty acid / HDL-cholesterol / Phospholipid / Total cholesterol / Triglyceride: 3 weeks, mean (n=6) ± standard error
Source text: (§4) 5Sitosten-3-one was synthesized from β-sitosterol (Tokyo Chemical Industry Co., Ltd.) according to the method of Parish (Parish, E. J., et al., Synthetic Communication, 22, pp.2839-2847, 1992), and purified by silica gel column chromatography and recrystallization. The content ratio of 24-ethyl isomer and 24-methyl compounds in the synthesized product was 6.5:3.5. As experimental animals, thirty 4-week old CDF1 male mice were purchased from Charles River Japan Inc. and divided into five experimental groups each composed of six mice. The test compounds were administered as the admixture in feeds, and the following groups were provided: (1) 0.1% addition, (2) 0.3% addition, (3) 0.5% addition, (4) a lipid-free feed without the addition of the test compound, and (5) control group without the addition of the test compound. A purified feed (modified AIN, Oriental Yeast Co.) was used as a basic feed, and supplemented with 10% soybean oil (Wako Pure Chemical Industries Co., Ltd.) to prepare solid feeds with or without the addition of the test compound. The lipid-free feed, per se, was processed to obtain solid feed. The animals were fed for a week with the feed for the control without the addition of test compound for acclimatization, and then the animals were allowed to feed with the respective feed ad libitum.
(§5) Each group of animals was housed in an aluminum cages of 22×33×11(h)cm (6 mice per a cage), and feedings were carried out at a temperature of 24±1° C. and a relative humidity of 55±5%, where light and darkness were controlled change every 12 hours. Measurements of body weights and feed intakes, and observations of general conditions were conducted three times a week. After the feeding for 3 week with the test feeds, the animals were subjected to autopsy and their bloods were collected. As serum lipid analyses, triglyceride, phospholipid, free fatty acid, total cholesterol, and HDL-cholesterol were measured by using a clinical test kit (Wako Pure Chemicals Industries Co., Ltd. ). Significances of the resulting values were examined by the variance analysis for the groups treated with the medicament, or by the t-test for the lipid-free feed group.

[3] = Feeding of rats with feed with 0.5% addition for 4 weeks (organ changes); assay type: in vivo; details: Fischer F344 rats
Source text: The changes observed in the livers, pancreases, kidneys, and lungs in the groups treated with the medicament were commonly observed in the lipid-free feed group, although the degrees were different. In the lipid-free feed group, absolute weight and relative weight of livers increased by 4% and 6%, respectively, and absolute weight and relative weight of kidneys decreased by 12% and 11%, respectively. […] These changes were not observed when Fischer F344 rats were fed with the feed with 0.5% addition for 4 weeks, and therefore, the changes were considered as unique to CDF1 mice.

[4] = Example 3: general conditions and weight of organs; assay type: in vivo, CDF1 male mice
Source text: as §4, §5

[5] = Example 3: dose response of 5-sitosten-3-one on body weight, feed intake, feed efficiency and intraperitoneal fat; assay type: in vivo, CDF1 male mice; details: for Intraperitoneal fat: 3 weeks, mean (n=6) ± standard error; for Body weight gain: total throughout the experimental period
Source text: as §4, §5

[6] = Example 1: serum lipids and serum metabolites of mice fed feed supplemented with 0.5% test compound; assay type: in vivo; details: for Serum metabolite: metabolite of the test compound detected in serum
Procedure: as §1, §2, §3

[7] = Example 1: general conditions and autopsical finding; assay type: in vivo, CDF1 male mice; details: 0.5% in feed, 2 weeks
Procedure: as §1, §2, §3

[8] = ratio relative to the non-treated control group, CDF1 mice

5-sitosten-3-one (24-ethylcholest-5-en-3-one)
Amount of intraperitoneal fat relative to non-treated control mice (FIG. 2) ([1]; 0.5% in feed for two weeks): half
Body fat (subcutaneous fat and intraperitoneal fat) ([1]; 0.5% in feed for two weeks): Remarkable decreases
Increase in body weight (FIG. 1) ([1]; 0.5% in feed, compared to non-treated control mice): remarkably suppressed
Body weight gain [1, 8]: 56%
Intraperitoneal fat [1, 8]: 50%
Free fatty acid ([2]; 0.1% addition to feed): 1.41 ± 0.04 mEq/dl
HDL-cholesterol ([2]; 0.1% addition to feed): 68.7 ± 13.6 mg/dL
Phospholipid ([2]; 0.1% addition to feed): 237.8 ± 8.9 mg/dL
Total cholesterol ([2]; 0.1% addition to feed): 164.8 ± 4.0 mg/dL
Triglyceride ([2]; 0.1% addition to feed): 145.4 ± 8.5 mg/dL
Change in HDL-cholesterol ([2]; 0.1-0.5% addition groups): no significant change
Free fatty acid ([2]; 0.3% addition to feed): 1.05 ± 0.06 mEq/dl
HDL-cholesterol ([2]; 0.3% addition to feed): 72.5 ± 7.7 mg/dL
Phospholipid ([2]; 0.3% addition to feed): 187.0 ± 12.2 mg/dL
Total cholesterol ([2]; 0.3% addition to feed): 125.5 ± 7.6 mg/dL
Triglyceride ([2]; 0.3% addition to feed): 78.0 ± 0.9 mg/dL
Triglyceride as compared to the control group (decrease down to) ([2]; 0.5% addition group): 26%
Free fatty acid ([2]; 0.5% addition to feed): 0.87 ± 0.05 mEq/dl
HDL-cholesterol ([2]; 0.5% addition to feed): 61.7 ± 4.3 mg/dL
Phospholipid ([2]; 0.5% addition to feed): 172.5 ± 8.6 mg/dL
Total cholesterol ([2]; 0.5% addition to feed): 102.9 ± 6.4 mg/dL
Triglyceride ([2]; 0.5% addition to feed): 66.8 ± 2.3 mg/dL
Organ weight changes (livers, pancreases, kidneys, lungs) [3]: not observed
Liver weight difference ([4]; 0.1% addition group): no significant difference
Absolute weights of pancreas ([4]; 0.1-0.5% addition groups): decreased in proportion to the amount of the medicament
Changes in relative weight of pancreas ([4]; 0.1-0.5% addition groups): not significant
Decrease of absolute weight of kidney ([4]; 0.3% addition group): 17%
Decrease of relative weight of kidney ([4]; 0.3% addition group): 10%
Increase of relative weight of livers ([4]; 0.3% addition group): 17%
Absolute weight of lungs and spleens ([4]; 0.5% addition group): Decreases
Decrease of absolute weight of kidney ([4]; 0.5% addition group): 32%
Decrease of relative weight of kidney ([4]; 0.5% addition group): 17%
Increase of absolute weight of livers ([4]; 0.5% addition group): 15%
Increase of relative weight of livers ([4]; 0.5% addition group): 40%
Relative weights of lungs and spleens ([4]; 0.5% addition group): not different from those of the control group
General conditions (appearance, properties of feces, breath and behavior) ([4]; each experimental group, except for changes in body weight): No abnormality
Histopathological change ([4]; organs of treated CDF1 mice): absence of any histopathological change
Amount of intraperitoneal fat relative to the control group ([5]; 0.1% addition group): 83%
Feed efficiency (body weight gain/feed intake) ([5]; 0.1% addition to feed): 0.079
Intraperitoneal fat ([5]; 0.1% addition to feed): 996.0 ± 53.5 mg
Body weight gain ([5]; 0.1% addition to feed): 4.89 g/mouse
Changes in body weight (FIG. 4) ([5]; 0.1%, 0.3% and 0.5% addition, dose-dependent): body weight decreases were observed
Amount of intraperitoneal fat relative to the control group ([5]; 0.3% addition group): 63%
Feed efficiency (body weight gain/feed intake) ([5]; 0.3% addition to feed): 0.062
Intraperitoneal fat ([5]; 0.3% addition to feed): 760.7 ± 36.9 mg
Body weight gain ([5]; 0.3% addition to feed): 3.62 g/mouse
Amount of intraperitoneal fat relative to the control group ([5]; 0.5% addition group): 42%
Decrease of feed efficiency compared to the control group ([5]; 0.5% addition group): about 80%
Feed efficiency (body weight gain/feed intake) ([5]; 0.5% addition to feed): 0.016
Intraperitoneal fat ([5]; 0.5% addition to feed): 500.6 ± 79.2 mg
Body weight gain ([5]; 0.5% addition to feed): 0.84 g/mouse
Cholestanol (serum), mean ± standard error ([6]; 0.5% in feed, 2 weeks, n=6): 0 mg/dL
Neutral fats (serum), mean ± standard error ([6]; 0.5% in feed, 2 weeks, n=6): 56.5 ± 8.2 mg/dL
Total cholesterol (serum), mean ± standard error ([6]; 0.5% in feed, 2 weeks, n=6): 81.3 ± 3.0 mg/dL
Serum metabolite ([6]; CDF1 mice): 0
Serum metabolite ([6]; CDF1 mice, listed as 5-sitosten-3-one): no cholestanol and other metabolites were detected
Serum cholesterol [6, 8]: 51%
Serum neutral fats [6, 8]: 15%
General conditions [7]: normal
Kidney weight at autopsy [7]: slight weight decrease
Pathological abnormality in the other organs and tissues ([7]; autopsy): No pathological abnormality
